Assay results published in the supplement of paper PMC4858399.
Counter-ions that a name gives are not always drawn.

How the values were obtained:
Conditions in all cases: exposure time 48 h
[1] = tested on: Caenorhabditis elegans N2; assay: mean nematode size ln(EXT) after 48 h, plate-adjusted (DMSO control set to 6) (ln(EXT), control-adjusted); higher = larger nematodes / less growth inhibition
Method in brief: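 Synchronised C. elegans N2 L1 larvae were grown for 48 h at 20°C in K-medium containing killed OP50, 1% DMSO and 0.5–200 µM chemical, at 50 per well and 4–6 wells per treatment. The Biosort recorded extinction for each worm, and a growth model removed debris. Worm size was obtained by natural-logging these values and averaging them per well. For plate adjustment, the vehicle control mean was subtracted and 6 was added.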

[2] = tested on: Caenorhabditis elegans N2; assay: AC50 for larval growth inhibition (Hill fit); higher = less potent
Method in brief: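 AC50 values come from a constrained Hill fit by weighted genetic-algorithm regression and are censored when out of range. The fit used only wells with at least 10 worms. Each well of a 96-well plate held 50 synchronised C. elegans N2 L1 larvae in K-medium with killed OP50, 1% DMSO and 0.5–200 µM chemical for 48 h at 20°C. A COPAS Biosort recorded each worm's size as extinction, which was log-transformed and averaged per well.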

[3] = tested on: Caenorhabditis elegans N2; assay: lowest effective concentration for larval growth inhibition (size below effect threshold); higher = less potent
Method in brief: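 L1 larvae of C. elegans N2 (50 per 96-well) were grown in K-medium with killed bacteria and 1% DMSO, with the chemical at 0.5, 1, 5, 10, 50, 100 or 200 µM, for 48 h at 20°C. Per-worm extinction from the Biosort stood for size and was log-transformed into well means. For each chemical, the lowest effective concentration is the first dose where plate-adjusted mean size falls under the threshold and stays under it at the higher doses, using a threshold of 5.665.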

SMILES | mean nematode size ln(EXT) (ln) ([1]; 0.5 µM) | mean nematode size ln(EXT) (ln) ([1]; 1 µM) | mean nematode size ln(EXT) (ln) ([1]; 5 µM) | mean nematode size ln(EXT) (ln) ([1]; 10 µM) | mean nematode size ln(EXT) (ln) ([1]; 50 µM) | mean nematode size ln(EXT) (ln) ([1]; 100 µM) | mean nematode size ln(EXT) (ln) ([1]; 200 µM) | AC50 for larval growth inhibition [2] [µM] | lowest effective concentration [3] [µM]
CCOC(=O)C(C)OC(=O)c1cc(Oc2ccc(C(F)(F)F)cc2Cl)ccc1[N+](=O)[O-] (stereo not given) [Lactofen] | 5.89 | 5.94 | 5.8 | 5.86 | 5.24 | 5.25 | 4.89 | 138 | 50
CC(=O)NC1(c2cccc(F)c2)CCN(CC[C@@]2(c3ccc(Cl)c(Cl)c3)CN(c3ccccc3)C(=O)CO2)CC1 | 5.89 | 5.91 | 5.85 | 5.88 | 5.82 | 5.52 | 5.02 | > 200 | 100
Clc1ccc(Cl)c(Cl)c1 [1,2,4-Trichlorobenzene] | 5.82 | 5.79 | 5.69 | 5.76 | 5.66 | 5.84 | 4.27 | 186 | 200
CCCCCCCCCCCCCCCCO [1-Hexadecanol] | 5.89 | 5.83 | 5.86 | 5.79 | 5.68 | 5.79 | 5.64 | > 200 | 200
O=C(O)C(O)C(O)C(=O)O (stereo not given) [Tartaric acid] | 5.84 | 5.89 | 5.79 | 5.79 | 5.9 | 5.82 | 5.17 | > 200 | 200
COC(=O)Nc1nc2ccccc2[nH]1 [methyl 1H-benzimidazol-2-ylcarbamate] | 5.81 | 5.7 | 5.32 | 5.32 | 5.06 | 4.58 | 4.89 | 6.43 | 5
Cc1ccc(N)cc1N [2,4-Diaminotoluene] | 5.86 | 5.94 | 5.9 | 5.74 | 5.89 | 5.72 | 5.5 | > 200 | 200
CCOC(=O)C(C)Oc1ccc(Oc2cnc3cc(Cl)ccc3n2)cc1 (stereo not given) [Quizalofop-ethyl] | 5.77 | 5.9 | 5.82 | 5.91 | 5.33 | 4.78 | 4.4 | 84.1 | 50
O=[N+]([O-])c1ccc(O)c([N+](=O)[O-])c1 [2,4-Dinitrophenol] | 5.82 | 5.79 | 5.78 | 5.83 | 5.83 | 5.75 | 5.52 | > 200 | 200
O=[N+]([O-])c1c(Cl)c(Cl)c(Cl)c(Cl)c1Cl [Quintozene] | 5.85 | 5.74 | 5.72 | 5.88 | 5.93 | 5.94 | 5.11 | 194 | 200
CC(C)c1cccc(C(C)C)c1 [1,3-Diisopropylbenzene] | 6.02 | 5.98 | 5.99 | 6.07 | 6.21 | 6.12 | 5.46 | 175 | 200
CCCCOCCOCCOCc1cc2c(cc1CCC)OCO2 [Piperonyl butoxide] | 5.87 | 5.86 | 5.8 | 5.86 | 5.48 | 5.43 | 5.41 | 76.9 | 50
CCNP(=S)(OC)O/C(C)=C/C(=O)OC(C)C (stereo not given) [Propetamphos] | 5.88 | 5.88 | 5.75 | 5.71 | 4.95 | 5.45 | 3.98 | > 200 | 50
CCC(C)(C)C(=O)OC1=C(c2ccc(Cl)cc2Cl)C(=O)OC12CCCCC2 [Spirodiclofen] | 5.74 | 5.86 | 5.7 | 5.73 | 4.53 | 4.72 | 4.25 | 24 | 50
CCOc1ccc2[nH]cc(C(=O)NCc3ccccc3)c(=O)c2n1 | 5.85 | 5.84 | 5.84 | 5.96 | 5.91 | 5.86 | 5.63 | > 200 | 200
CCCCN1C(=O)[C@@H]([C@H](O)C2CCCCC2)NC(=O)C12CCN(Cc1ccc(Oc3ccc(C(=O)O)cc3)cc1)CC2 [Aplaviroc hydrochloride] | 5.87 | 5.82 | 5.8 | 5.88 | 5.87 | 5.74 | 5.55 | > 200 | 200
C[C@]12C=CC(=O)C=C1CC[C@@H]1[C@@H]2C(=O)C[C@@]2(C)[C@H]1CC[C@]2(O)C(=O)CO [Prednisone] | 6.09 | 5.82 | 5.85 | 5.87 | 5.86 | 5.47 | 5.62 | 52.4 | 100
N#CSCSc1nc2ccccc2s1 [TCMTB] | 5.93 | 5.84 | 5.81 | 5.78 | 4.12 | 3.48 | 3.4 | 34 | 50
CC(C)(C)C(O)/C(=C/c1ccc(Cl)cc1Cl)n1cncn1 (stereo not given) [Diniconazole] | 5.97 | 5.84 | 5.68 | 5.59 | 4.97 | 3.98 | 4.28 | 38.3 | 10
COc1ccc(S(=O)(=O)N2C(=O)[C@@](c3ccccc3OC)(N3C[C@H](O)C[C@H]3C(=O)N(C)C)c3cc(Cl)ccc32)c(OC)c1 [Nelivaptan] | 5.95 | 5.76 | 5.72 | 5.83 | 5.7 | 5.48 | 5.44 | > 200 | 100
